Laboratory results from patent publication US6355799B1, “Substituted benzene compounds, process for their preparation, and herbicidal and defoliant compositions containing them” (ISK Americas Incorporated, priority 1997, dated 2002).

Key:
Assay type in all cases: in vivo
[1] = test system: field corn (Zea mays L., var. Dekalb 535, CORN); test: Post-emerge test, crop safety; details: post-emerge, 14 days after application, rating scale 0-100
Method in brief: (§1)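 Compounds in acetone were track-sprayed at 187 l/ha, 15–1000 g ai/ha, onto sandy loam pots. Pre-emerge seeds were sown one day before spraying, with surface watering afterwards. Post-emerge plants were at the 2–3 leaf stage and sprayed with 0.25% v/v non-ionic surfactant. Injury was rated 0–100 at 14 days.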

[2] = test system: upland rice (Oryza sp., var. Tebonnet, RICE); test: Post-emerge test, crop safety; details: post-emerge, 14 days after application, rating scale 0-100
Method in brief: as §1

[3] = test system: johnsongrass (Sorghum halepense, SORHA); test: Post-emerge test, greenhouse herbicide activity screening; details: post-emerge, 14 days after application, rating scale 0-100
Method in brief: (§2)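 Sandy loam pots; pre-emerge: sown 1 d pre-spray, surface-watered after, then bottom-watered. Post-emerge: sown 8–21 d before, 2–3 leaf stage, + 0.25% v/v NIS, bottom-watered. Acetone, 187 l/ha track spray, 15–1000 g ai/ha. 0–100 injury score, day 14.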

[4] = test system: sicklepod (Cassia obtusifolia, CASOB); test: as above; details: post-emerge, 14 days after application, rating scale 0-100
Method in brief: as §2

[5] = test system: redroot pigweed (Amaranthus retroflexus, AMARE); test: as above; details: post-emerge, 14 days after application
Method in brief: as §2

[6] = test system: velvetleaf (Abutilon theophrasti, ABUTH); test: as above; details: post-emerge, 14 days after application, rating scale 0-100
Method in brief: as §2

[7] = test system: barnyardgrass (Echinochloa crus-galli, ECHCG); test: as above; details: post-emerge, 14 days after application, rating scale 0-100
Method in brief: as §2

[8] = test system: green foxtail (Setaria viridis, SETVI); test: as above; details: post-emerge, 14 days after application, rating scale 0-100
Method in brief: as §2

[9] = test system: lambsquarters (Chenopodium album, CHEAL); test: as above; details: post-emerge, 14 days after application, rating scale 0-100
Method in brief: as §2

[10] = test system: large crabgrass (Digitaria sanguinalis, DIGSA); test: as above; details: post-emerge, 14 days after application, rating scale 0-100
Method in brief: as §2

[11] = test system: ivyleaf morningglory (Ipomoea hederacea, IPOHE); test: as above; details: post-emerge, 14 days after application, rating scale 0-100
Method in brief: as §2

[12] = test system: johnsongrass (Sorghum halepense, SORHA); test: Pre-emerge test, greenhouse herbicide activity screening; details: for Pre-emerge Herbicidal Activity, phytotoxicity rating (0-100), SORHA: rated 14 days after application, 0 = no damage, 100 = complete death; for phytotoxicity rating SORHA: pre-emerge, 14 days after application, rating scale 0-100
Method in brief: as §1

[13] = test system: sicklepod (Cassia obtusifolia, CASOB); test: as above; details: for Pre-emerge Herbicidal Activity, phytotoxicity rating (0-100), CASOB: rated 14 days after application, 0 = no damage, 100 = complete death; for phytotoxicity rating CASOB: pre-emerge, 14 days after application, rating scale 0-100
Method in brief: as §1

[14] = test system: velvetleaf (Abutilon theophrasti, ABUTH); test: as above; details: for Pre-emerge Herbicidal Activity, phytotoxicity rating (0-100), ABUTH: rated 14 days after application, 0 = no damage, 100 = complete death; for phytotoxicity rating ABUTH: pre-emerge, 14 days after application, rating scale 0-100
Method in brief: as §1

[15] = test system: barnyardgrass (Echinochloa crus-galli, ECHCG); test: as above; details: for Pre-emerge Herbicidal Activity, phytotoxicity rating (0-100), ECHCG: rated 14 days after application, 0 = no damage, 100 = complete death; for phytotoxicity rating ECHCG: pre-emerge, 14 days after application, rating scale 0-100
Method in brief: as §1

[16] = test system: green foxtail (Setaria viridis, SETVI); test: as above; details: for Pre-emerge Herbicidal Activity, phytotoxicity rating (0-100), SETVI: rated 14 days after application, 0 = no damage, 100 = complete death; for phytotoxicity rating SETVI: pre-emerge, 14 days after application, rating scale 0-100
Method in brief: as §1

[17] = test system: lambsquarters (Chenopodium album, CHEAL); test: as above; details: for Pre-emerge Herbicidal Activity, phytotoxicity rating (0-100), CHEAL: rated 14 days after application, 0 = no damage, 100 = complete death; for phytotoxicity rating CHEAL: pre-emerge, 14 days after application, rating scale 0-100
Method in brief: as §1

[18] = test system: large crabgrass (Digitaria sanguinalis, DIGSA); test: as above; details: for Pre-emerge Herbicidal Activity, phytotoxicity rating (0-100), DIGSA: rated 14 days after application, 0 = no damage, 100 = complete death; for phytotoxicity rating DIGSA: pre-emerge, 14 days after application, rating scale 0-100
Method in brief: as §1

[19] = test system: ivyleaf morningglory (Ipomoea hederacea, IPOHE); test: as above; details: for Pre-emerge Herbicidal Activity, phytotoxicity rating (0-100), IPOHE: rated 14 days after application, 0 = no damage, 100 = complete death; for phytotoxicity rating IPOHE: pre-emerge, 14 days after application, rating scale 0-100
Method in brief: as §1

[20] = test system: field corn (Zea mays L., var. Dekalb 535, CORN); test: Pre-emerge test, crop safety; details: for Pre-emerge phytotoxicity rating (0-100), crop damage, CORN: rated 14 days after application, 0 = no damage, 100 = complete death; for phytotoxicity rating CORN: pre-emerge, 14 days after application, rating scale 0-100
Method in brief: (§3)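 Rating: 0–100 visual injury, 14 DAA. Application: acetone, 187 l/ha, 15–1000 g ai/ha, flat-fan track sprayer with nozzle 40–45 cm above soil or canopy. Post-emerge runs used 0.25% v/v surfactant on 2–3 leaf plants.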

[21] = test system: upland rice (Oryza sp., var. Tebonnet, RICE); test: Pre-emerge test, crop safety; details: for Pre-emerge phytotoxicity rating (0-100), crop damage, RICE: rated 14 days after application, 0 = no damage, 100 = complete death; for phytotoxicity rating RICE: pre-emerge, 14 days after application, rating scale 0-100
Method in brief: as §3

[22] = test system: redroot pigweed (Amaranthus retroflexus, AMARE); test: Pre-emerge test, greenhouse herbicide activity screening; details: for Pre-emerge Herbicidal Activity, phytotoxicity rating (0-100), AMARE: rated 14 days after application, 0 = no damage, 100 = complete death; for phytotoxicity rating AMARE: pre-emerge, 14 days after application, rating scale 0-100
Method in brief: as §1

[23] = 250 g ai/ha, rating scale 0-100

## COc1c(Cl)cc(F)c(-n2c(=O)cc(C(F)(F)F)n(C)c2=O)c1NC(=O)C=Cc1ccco1 [2-92]
[1]; 63 g ai/ha
  phytotoxicity rating CORN: 0
[1]; 250 g ai/ha
  phytotoxicity rating CORN: 30
[2]; 63 g ai/ha
  phytotoxicity rating RICE: 10
[2]; 250 g ai/ha
  phytotoxicity rating RICE: 60
[3]; 63 g ai/ha
  phytotoxicity rating SORHA: 0
[3]; 250 g ai/ha
  phytotoxicity rating SORHA: 0
[4]; 63 g ai/ha
  phytotoxicity rating CASOB: 0
[4]; 250 g ai/ha
  phytotoxicity rating CASOB: 30
[5]; 63 g ai/ha, rating scale 0-100
  phytotoxicity rating AMARE: 20
[5]; [23]
  phytotoxicity rating AMARE: 50
[6]; 63 g ai/ha
  phytotoxicity rating ABUTH: 100
[6]; 250 g ai/ha
  phytotoxicity rating ABUTH: 100
[7]; 63 g ai/ha
  phytotoxicity rating ECHCG: 0
[7]; 250 g ai/ha
  phytotoxicity rating ECHCG: 0
[8]; 63 g ai/ha
  phytotoxicity rating SETVI: 0
[8]; 250 g ai/ha
  phytotoxicity rating SETVI: 0
[9]; 63 g ai/ha
  phytotoxicity rating CHEAL: 20
[9]; 250 g ai/ha
  phytotoxicity rating CHEAL: 80
[10]; 63 g ai/ha
  phytotoxicity rating DIGSA: 0
[10]; 250 g ai/ha
  phytotoxicity rating DIGSA: 0
[11]; 63 g ai/ha
  phytotoxicity rating IPOHE: 20
[11]; 250 g ai/ha
  phytotoxicity rating IPOHE: 100
[12]; 63 g ai/ha
  Pre-emerge Herbicidal Activity, phytotoxicity rating (0-100), SORHA: 0
[12]; 250 g ai/ha
  Pre-emerge Herbicidal Activity, phytotoxicity rating (0-100), SORHA: 40
[13]; 63 g ai/ha
  Pre-emerge Herbicidal Activity, phytotoxicity rating (0-100), CASOB: 40
[13]; 250 g ai/ha
  Pre-emerge Herbicidal Activity, phytotoxicity rating (0-100), CASOB: 100
[14]; 63 g ai/ha
  Pre-emerge Herbicidal Activity, phytotoxicity rating (0-100), ABUTH: 100
[14]; 250 g ai/ha
  Pre-emerge Herbicidal Activity, phytotoxicity rating (0-100), ABUTH: 100
[15]; 63 g ai/ha
  Pre-emerge Herbicidal Activity, phytotoxicity rating (0-100), ECHCG: 0
[15]; 250 g ai/ha
  Pre-emerge Herbicidal Activity, phytotoxicity rating (0-100), ECHCG: 20
[16]; 63 g ai/ha
  Pre-emerge Herbicidal Activity, phytotoxicity rating (0-100), SETVI: 30
[16]; 250 g ai/ha
  Pre-emerge Herbicidal Activity, phytotoxicity rating (0-100), SETVI: 90
[17]; 63 g ai/ha
  Pre-emerge Herbicidal Activity, phytotoxicity rating (0-100), CHEAL: 100
[17]; 250 g ai/ha
  Pre-emerge Herbicidal Activity, phytotoxicity rating (0-100), CHEAL: 100
[18]; 63 g ai/ha
  Pre-emerge Herbicidal Activity, phytotoxicity rating (0-100), DIGSA: 0
[18]; 250 g ai/ha
  Pre-emerge Herbicidal Activity, phytotoxicity rating (0-100), DIGSA: 20
[19]; 63 g ai/ha
  Pre-emerge Herbicidal Activity, phytotoxicity rating (0-100), IPOHE: 30
[19]; 250 g ai/ha
  Pre-emerge Herbicidal Activity, phytotoxicity rating (0-100), IPOHE: 100
[20]; 63 g ai/ha
  Pre-emerge phytotoxicity rating (0-100), crop damage, CORN: 0
[20]; 250 g ai/ha
  Pre-emerge phytotoxicity rating (0-100), crop damage, CORN: 20
[21]; 63 g ai/ha
  Pre-emerge phytotoxicity rating (0-100), crop damage, RICE: 0
[21]; 250 g ai/ha
  Pre-emerge phytotoxicity rating (0-100), crop damage, RICE: 10
[22]; 63 g ai/ha
  Pre-emerge Herbicidal Activity, phytotoxicity rating (0-100), AMARE: 50
[22]; 250 g ai/ha
  Pre-emerge Herbicidal Activity, phytotoxicity rating (0-100), AMARE: 100

## COc1c(Cl)cc(F)c(-n2c(=O)cc(C(F)(F)F)n(C)c2=O)c1NN=CCc1ccccc1 [15-15]
[1]; 63 g ai/ha
  Post-emerge Herbicidal Activity CORN (crop damage rating): 45
[1]; 250 g ai/ha
  Post-emerge Herbicidal Activity CORN (crop damage rating): 90
[2]; 63 g ai/ha
  Post-emerge Herbicidal Activity RICE (crop damage rating): 70
[2]; 250 g ai/ha
  Post-emerge Herbicidal Activity RICE (crop damage rating): 95
[3]; 63 g ai/ha
  Post-emerge Herbicidal Activity SORHA (phytotoxicity rating): 30
[3]; 250 g ai/ha
  Post-emerge Herbicidal Activity SORHA (phytotoxicity rating): 99
[4]; 63 g ai/ha
  Post-emerge Herbicidal Activity CASOB (phytotoxicity rating): 80
[4]; 250 g ai/ha
  Post-emerge Herbicidal Activity CASOB (phytotoxicity rating): 100
[5]; 63 g ai/ha, rating scale 0-100 (0 no damage, 100 complete death)
  Post-emerge Herbicidal Activity AMARE (phytotoxicity rating): 100
[5]; [23]
  Post-emerge Herbicidal Activity AMARE (phytotoxicity rating): 100
[6]; 63 g ai/ha
  Post-emerge Herbicidal Activity ABUTH (phytotoxicity rating): 100
[6]; 250 g ai/ha
  Post-emerge Herbicidal Activity ABUTH (phytotoxicity rating): 100
[7]; 63 g ai/ha
  Post-emerge Herbicidal Activity ECHCG (phytotoxicity rating): 30
[7]; 250 g ai/ha
  Post-emerge Herbicidal Activity ECHCG (phytotoxicity rating): 100
[8]; 63 g ai/ha
  Post-emerge Herbicidal Activity SETVI (phytotoxicity rating): 40
[8]; 250 g ai/ha
  Post-emerge Herbicidal Activity SETVI (phytotoxicity rating): 95
[9]; 63 g ai/ha
  Post-emerge Herbicidal Activity CHEAL (phytotoxicity rating): 100
[9]; 250 g ai/ha
  Post-emerge Herbicidal Activity CHEAL (phytotoxicity rating): 100
[10]; 63 g ai/ha
  Post-emerge Herbicidal Activity DIGSA (phytotoxicity rating): 40
[10]; 250 g ai/ha
  Post-emerge Herbicidal Activity DIGSA (phytotoxicity rating): 100
[11]; 63 g ai/ha
  Post-emerge Herbicidal Activity IPOHE (phytotoxicity rating): 90
[11]; 250 g ai/ha
  Post-emerge Herbicidal Activity IPOHE (phytotoxicity rating): 100
[12]; 63 g ai/ha
  phytotoxicity rating SORHA: 100
[12]; 250 g ai/ha
  phytotoxicity rating SORHA: 100
[13]; 63 g ai/ha
  phytotoxicity rating CASOB: 100
[13]; 250 g ai/ha
  phytotoxicity rating CASOB: 100
[14]; 63 g ai/ha
  phytotoxicity rating ABUTH: 100
[14]; 250 g ai/ha
  phytotoxicity rating ABUTH: 100
[15]; 63 g ai/ha
  phytotoxicity rating ECHCG: 100
[15]; 250 g ai/ha
  phytotoxicity rating ECHCG: 100
[16]; 63 g ai/ha
  phytotoxicity rating SETVI: 100
[16]; 250 g ai/ha
  phytotoxicity rating SETVI: 100
[17]; 63 g ai/ha
  phytotoxicity rating CHEAL: 100
[17]; 250 g ai/ha
  phytotoxicity rating CHEAL: 100
[18]; 63 g ai/ha
  phytotoxicity rating DIGSA: 100
[18]; 250 g ai/ha
  phytotoxicity rating DIGSA: 100
[19]; 63 g ai/ha
  phytotoxicity rating IPOHE: 100
[19]; 250 g ai/ha
  phytotoxicity rating IPOHE: 100
[20]; 63 g ai/ha
  phytotoxicity rating CORN: 95
[20]; 250 g ai/ha
  phytotoxicity rating CORN: 100
[21]; 63 g ai/ha
  phytotoxicity rating RICE: 95
[21]; 250 g ai/ha
  phytotoxicity rating RICE: 100
[22]; 63 g ai/ha
  phytotoxicity rating AMARE: 100
[22]; 250 g ai/ha
  phytotoxicity rating AMARE: 100
